Where two headings read alike, the source gives them in different places.

Usually inhibition stands for the change of the read-out against control, counted positive when it falls.

Series [1] concerns D2 receptor. Nature of the series: D2 receptor binding assay (3H-Spiperone, rat striatum membrane). The following applies: test compound final concentration 10^−5 M; 3H-Spiperone; rat striatum membrane. On the procedure: Preparation of D2 Membrane
Rats were decapitated on ice. […] The weight of the homogenized tubes were adjusted using a balance, and centrifugation was conducted. […] Centrifugation was conducted.
(§1) Materials for the Receptor Binding Assay

Series [2] concerns the target T1, 5HT1A receptor (Rattus norvegicus, UniProt P19327).
T1 construct: Rats were decapitated on ice; from tissue; host or cells: rat brain striatum
T1 sequence (P19327 1-422): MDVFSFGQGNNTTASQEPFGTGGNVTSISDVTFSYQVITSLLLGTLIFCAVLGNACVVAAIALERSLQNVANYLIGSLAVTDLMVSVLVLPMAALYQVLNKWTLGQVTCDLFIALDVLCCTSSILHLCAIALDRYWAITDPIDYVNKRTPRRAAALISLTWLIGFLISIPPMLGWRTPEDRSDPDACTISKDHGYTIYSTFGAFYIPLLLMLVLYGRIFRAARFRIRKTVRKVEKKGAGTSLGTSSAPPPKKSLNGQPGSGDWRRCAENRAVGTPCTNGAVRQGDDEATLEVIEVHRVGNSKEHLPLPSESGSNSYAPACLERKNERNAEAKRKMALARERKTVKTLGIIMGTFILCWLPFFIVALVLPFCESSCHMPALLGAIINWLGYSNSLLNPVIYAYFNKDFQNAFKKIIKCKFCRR
Nature of the series: 5HT1A receptor binding assay (3H-8-OH-DPAT, rat striatum membrane). The following applies: test compound final concentration 10^−5 M; 3H-8-OH-DPAT; rat striatum membrane; read-out: 5HT1A Inhibition rate (%). On the procedure: Preparation of 5HT1A Membrane
Rats were decapitated on ice. […] Incubation at 37° C. was conducted for 10 min. […] Centrifugation was conducted at 12000 rpm, 4° C. for 20 min. […] Centrifugation was conducted and repeated 3 times.
as §1

In series [3] the target is T2, D3 receptor (Homo sapiens, UniProt P35462).
T2 construct: expressed in transfected cells; host or cells: HEK-293
Nature of the series: D3 receptor assay ([3H]-Spiperone, HEK-293 cells). It is filed as binding. The following applies: test compound final concentration 10 μmol/L; [3H]-Spiperone; HEK-293 cells; read-out: D3 Inhibition rate (%). The procedure: Then the cells were centrifuged at 1000 rpm for 5 min, the supernatant was discarded, and the cell pellets was collected and stored in a −20° C. fridge for reservation. It was re-suspended with Tris-Cl (pH 7.4) when the assay was performed.
Tris was divided into aliquots by Genetimes Technology Inc.
Competitive binding test for receptors: 20 μl of each of the test compounds and 20 μl of the radioactive ligand together with 160 μl of the receptor proteins were added into the reaction tubes, and the final concentrations of the test compound and the positive drug were all 10 μmol/L. After 50 min of incubation in 30° C. water bath, the tubes were immediately moved to ice bath to terminate the reactions. GF/C glass fiber filter papers were used for rapid sucking filtration on a Millipore cell sample collector, 3 ml of elution buffer (50 mM Tris-HCl, PH 7.4) was applied for 3 times, and microwave was applied for 4-5 min for drying. The filter paper was moved into 0.5 ml centrifuge tube, and 500 μl of liposoluble scintillation cocktail was added. The tubes were allowed to stand still for over 30 min in dark, and the intensities of radioactivity were measured by a counter.

Series [4] concerns the target T3, 5HT2C receptor (Rattus norvegicus, UniProt P08909).
T3 construct: from tissue; host or cells: rat brain striatum
T3 sequence (P08909 33-460): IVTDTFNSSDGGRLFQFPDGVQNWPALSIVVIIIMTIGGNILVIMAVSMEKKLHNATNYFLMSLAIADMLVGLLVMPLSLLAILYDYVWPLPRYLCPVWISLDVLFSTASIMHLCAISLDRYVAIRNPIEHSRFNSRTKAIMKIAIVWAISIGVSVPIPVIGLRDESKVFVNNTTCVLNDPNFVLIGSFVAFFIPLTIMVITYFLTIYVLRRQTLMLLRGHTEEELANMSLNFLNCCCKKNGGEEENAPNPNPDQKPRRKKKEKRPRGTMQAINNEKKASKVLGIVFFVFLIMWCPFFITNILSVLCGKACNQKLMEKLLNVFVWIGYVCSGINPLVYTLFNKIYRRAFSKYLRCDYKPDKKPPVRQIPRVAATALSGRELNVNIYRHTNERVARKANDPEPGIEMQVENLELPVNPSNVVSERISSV
Nature of the series: 5HT2C receptor binding assay ([3H]-mesulergine, rat striatum membrane). To be noted: test compound final concentration 10^−5 M; [3H]-mesulergine; rat striatum membrane; read-out: 5HT2C Inhibition rate (%). On the procedure: Preparation of 5HT2C Membrane
Rats were decapitated on ice. […] Centrifugation was conducted.
as §1

Series [5] concerns α1 norepinephrine receptor. Nature of the series: α1 norepinephrine receptor binding assay (3H-prazosin, rat cortex membrane). To be noted: test compound final concentration 10^−5 M; 3H-prazosin; rat cortex membrane. The text has this: Preparation of Receptor Membrane of Norepinephrine
α1 Norepinephrine Receptor Binding Assay

Series [6] relates to mice of Kunming breed. Nature of the series: MK-801 induced high activity in mice. It is filed as in vivo. To be noted: Mus musculus, 1.5 h, po, MK-801 0.1 mg/kg ip, spontaneous activities in 90 min. On the procedure:
Example 54: MK-801 Induced High Activity—the In Vivo Anti-Schizophrenia Activity of the Compounds
Healthy mice of Kunming breed (with half male and half female, (20±2) g) were provided by Qinglongshan Animal Cultivation Center, Nanjing.
Ascorbic acid was provided by Sinopharm Chemical Reagent Co. Ltd.
MK-801 was produced by Sigma Company, USA; the formulation method: 0.1% vitamin C was used to formulate a 1 mg/ml solution.
Test positive drugs: haloperidol, clozapine, risperidone, olanzapine, aripiprazole, ziprasidone, quetiapine.
Tween 80, with the concentration of 10%.
Mice with qualified body weight were selected, and randomly divided into blank group, model group, positive control group (risperidone group) and drug group. […] 1 h after the administration, 0.1% concentration of ascorbic acid was intraperitoneally injected to the blank group at 0.1 ml/10 g; and the model group, the positive control group (30 min) and the drug group were intraperitoneally injected the MK-801 solution at 0.1 mg/kg. Subsequently, the spontaneous activities of the mice of each group in 90 min were measured.

For series [7], the system named is mice of Kunming breed. Nature of the series: Apomorphine induced clambering assay of mice. It is filed as in vivo. The following applies: Mus musculus; mice, po; apomorphine 1 mg/kg sc 1 hour after administration; read-out: Apomorphine induced clambering (ED50, po, mg/kg). On the procedure: Healthy mice of Kunming breed (KM) (male, with body weight of 18-22 g) were provided by Qinglongshan Animal Cultivation Center, Nanjing.
Apomorphine provided by Sigma Company was dissolved in 0.9% NaCl (containing 0.1% vitamin C) before use, and was freshly formulated before use.
Vitamin C, F20061113, was provided by Sinopharm Chemical Reagent Co. Ltd.
Sodium chloride injection, H32026305, was provided by Xuzhou No. 5 Pharmaceutical Factory Co. Ltd.
Instruments: self-made clambering cage, chronograph.
Procedures: apomorphine induced clambering assay of mice
After 5 min of adaptation, the behavior of the mice at 10-11, 20-21, and 30-31 min after the injection of apomorphine were observed and scored. Scoring criteria: the behavior of 4 paws on the floor was scored as 0; the behavior of 2 forepaws on the cage was scored as 1; and the behavior of 4 paws on the cage was scored as 2.

Series [8] in a line: Catalepsy assay in mice. The following applies: both sexes, Kunming, mouse, in vivo, po, bar test at 30, 60, 90 min. The procedure: Healthy mice of Kunming breed (with half male and half female, (22±2) g) were provided by Qinglongshan Animal Cultivation Center, Nanjing.
Instruments: self-made bar-grabbing apparatus: stainless steel bar in mice box, which was 0.3 cm in diameter and […].
Corresponding solvent double-distilled water was administered intragastrically to the negative control group and the model group, corresponding positive drugs were administered intragastrically to the positive drug groups (a small amount of acetic acid was first added and then double-distilled water was added when dissolving), and corresponding dosages of compounds were administered intragastrically to the compound groups for each dosage, with the volume for intragastric administration as 0.1 ml/10 g. At 30 min, 60 min, 90 min after the intragastric administration, the two forepaws of the mice were gently placed on the bars (which were 20 cm in length, 0.3 cm in diameter, and 5.5 cm above the bench), and the hindpaws of the animals were placed on the bottom of the box. The durations of the mice to maintain the posture with the two forepaws on the bars were recorded, and 30 s of spasticity without moving was considered as the positive response. In the case the forepaws of the mice were not put down persistently, the observation was terminated at 60 s. The numbers of animals with positive response in each of the compound dosage groups were counted.

A short description of series [9]: in vivo. To be noted: both sexes, mouse, in vivo, po.
Series [10] deals with 5HT2A receptor (Rattus norvegicus, UniProt P14842). Nature of the series: 5HT2A receptor binding assay ([3H]-Ketanserin, rat striatum membrane). The following applies: read-out: 5HT2A Inhibition rate (%).
Series [11] addresses Histamine H1 receptor (Rattus norvegicus, UniProt P31390). Nature of the series: Histamine H1 receptor binding assay (3H-pyrilamine, rat cerebellum membrane). To be noted: read-out: H1 Inhibition rate (%).
Method: The supernatant was discarded to give pellets, and homogenate F was added again to the pellets for washing. Centrifugation was conducted and repeated 3 times.
(2) 100 μL of membrane preparation was added into each reaction tube.
Series [12] deals with KM mice. Nature of the series: in vivo.
Where [13] appears, read: single intragastric administration in mice, read-out: LD50 (po, mg/kg).
Where [14] appears, read: both, KM, mouse, in vivo, po, 7 days.
Setting [15] is: single intragastric administration in mice.

Sequence of Histamine H1 receptor (P31390 whole entry): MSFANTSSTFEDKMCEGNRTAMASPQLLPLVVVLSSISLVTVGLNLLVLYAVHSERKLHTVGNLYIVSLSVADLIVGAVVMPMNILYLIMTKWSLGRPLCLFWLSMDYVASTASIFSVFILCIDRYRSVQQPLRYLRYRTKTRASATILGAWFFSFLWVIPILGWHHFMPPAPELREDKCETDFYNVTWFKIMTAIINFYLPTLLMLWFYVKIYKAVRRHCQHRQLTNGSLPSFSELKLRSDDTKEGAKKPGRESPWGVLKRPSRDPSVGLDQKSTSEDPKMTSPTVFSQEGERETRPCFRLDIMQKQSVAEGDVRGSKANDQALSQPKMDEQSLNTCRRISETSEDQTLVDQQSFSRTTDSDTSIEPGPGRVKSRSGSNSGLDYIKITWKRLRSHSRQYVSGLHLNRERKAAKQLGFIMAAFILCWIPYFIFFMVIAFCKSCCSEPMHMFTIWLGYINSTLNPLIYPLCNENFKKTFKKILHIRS
Sequence of 5HT2A receptor (P14842 whole entry): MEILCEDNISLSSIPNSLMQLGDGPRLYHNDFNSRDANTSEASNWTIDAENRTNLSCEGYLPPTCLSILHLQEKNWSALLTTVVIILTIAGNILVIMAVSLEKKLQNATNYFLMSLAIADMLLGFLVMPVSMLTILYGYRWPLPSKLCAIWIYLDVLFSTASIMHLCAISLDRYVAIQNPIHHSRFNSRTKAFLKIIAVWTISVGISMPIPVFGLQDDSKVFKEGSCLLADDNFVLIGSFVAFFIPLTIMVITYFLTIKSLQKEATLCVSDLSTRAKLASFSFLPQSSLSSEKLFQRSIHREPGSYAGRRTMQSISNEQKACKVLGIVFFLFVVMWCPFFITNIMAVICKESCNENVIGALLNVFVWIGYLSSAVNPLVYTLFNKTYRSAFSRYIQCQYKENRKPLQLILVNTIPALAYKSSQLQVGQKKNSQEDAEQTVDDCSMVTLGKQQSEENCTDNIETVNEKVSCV
T2 sequence (P35462 whole entry): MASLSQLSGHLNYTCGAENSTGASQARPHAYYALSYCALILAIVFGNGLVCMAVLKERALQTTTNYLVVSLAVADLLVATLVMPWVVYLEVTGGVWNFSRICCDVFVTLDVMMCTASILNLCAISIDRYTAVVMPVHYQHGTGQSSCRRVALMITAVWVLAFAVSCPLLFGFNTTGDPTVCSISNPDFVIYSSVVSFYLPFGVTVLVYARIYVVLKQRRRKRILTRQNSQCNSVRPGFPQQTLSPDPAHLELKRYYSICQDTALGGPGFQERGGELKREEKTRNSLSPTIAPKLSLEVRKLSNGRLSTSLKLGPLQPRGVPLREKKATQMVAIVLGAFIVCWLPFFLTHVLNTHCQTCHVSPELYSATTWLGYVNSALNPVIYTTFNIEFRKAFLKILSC

In the case of `O=C(CCN1CCC(c2noc3cc(F)ccc23)CC1)c1cc2c3c(c1)CCC(=O)N3CCC2` [Compound 2], the “D2 Inhibition rate (%)” value in [1] is listed as 94.33%. Also, the inhibition at 10 µM in series [2] was found to be 93.9%; in series [3] it was 74.9%; in series [4] it was 63.9%; in [10] it was 97.9%; in series [11], 47.9%. In [5], the “α1 Inhibition rate (%)” value was 68.75%. The ED50 is 0.2 mg/kg in [6], 0.11 mg/kg in [7] and 3.8 mg/kg in series [8]. Also, the LD50 at 7 days in series [9] (setting [13]) is greater than 2000 mg/kg.

Take `O=C1CCc2cc(CCCCN3CCC(c4noc5cc(F)ccc45)CC3)cc3c2N1CCC3` [Compound 7]: the “D2 Inhibition rate (%)” value in series [1] was determined as 94.32%. The inhibition at 10 µM in [2] is 99.2%; in series [3], 98.1%; in series [4] it was 62.2%; in series [10] it was 99.4%; in series [11] it was 46.4%. In series [5], the “α1 Inhibition rate (%)” value is 63.69%. For the same compound, the ED50 in series [6] worked out at 0.92 mg/kg; in [7], 0.44 mg/kg; in series [8], 24.1 mg/kg. The LD50 at 7 days in series [9] (setting [13]) was greater than 2000 mg/kg.

Turning to `O=C(CCCN1CCC(c2noc3cc(F)ccc23)CC1)c1cc2c3c(c1)CCN3C(=O)CC2` [Compound 15], in [1], the “D2 Inhibition rate (%)” value is given as 103.83%. The inhibition at 10 µM in series [2] amounted to 103%; in series [3] it was 99.9%; in [4], 52.7%; in series [10], 104%; in series [11] it was 34%. Besides, the “α1 Inhibition rate (%)” value in series [5] is on record as 43.69%. For the same compound, the ED50 was determined as 0.21 mg/kg in series [6], 0.12 mg/kg in series [7] and 50 mg/kg in [8]. In addition, the LD50 at 7 days in [9] (KM) was greater than 2000 mg/kg.

For `O=C1CCc2ccc(OCCCCN3CCN(c4cccc(Cl)c4Cl)CC3)cc2N1` [aripiprazole], the values for the ED50 in series [6] and in [7] were 0.12 mg/kg and 0.66 mg/kg, respectively. The “LD50 (po, mg/kg)” value in series [12] (setting [14]) worked out at 93 mg/kg.

`CN1CCN(C2=Nc3cc(Cl)ccc3Nc3ccccc32)CC1` [clozapine]: the results for the ED50 in series [6] and in series [7] were 2.28 mg/kg and 17.9 mg/kg, respectively. For the same compound, in [12] (setting [15]), the “LD50 (po, mg/kg)” value stood at 150 mg/kg.

Take `O=C(CCCN1CCC(O)(c2ccc(Cl)cc2)CC1)c1ccc(F)cc1` [haloperidol]: the ED50 in series [6] came to 7.42 mg/kg; in [7] it was 0.1 mg/kg. For the same compound, in series [12] (setting [15]), the “LD50 (po, mg/kg)” value was 20 mg/kg.

Turning to `OCCOCCN1CCN(C2=Nc3ccccc3Sc3ccccc32)CC1` [quetiapine], the figures for the ED50 in series [6] and in series [7] were 10.1 mg/kg and 2.02 mg/kg, respectively. Moreover, in series [12] (setting [14]), the “LD50 (po, mg/kg)” value came to 800 mg/kg.

Turning to `O=C1Cc2cc(CCN3CCN(c4nsc5ccccc45)CC3)c(Cl)cc2N1` [ziprasidone], the ED50 in series [6] worked out at 0.56 mg/kg; in series [7], 0.37 mg/kg. In series [9] (setting [13]), the LD50 at 7 days is greater than 2000 mg/kg.

(Values after patent US10517862B2, “Fused heterocyclic compound derivative and application thereof” (NHWA PHARMA. CORPORATION, priority 2015, dated 2019).)
